Data as given in patent publication US20250096297A1, “NOVEL AQUEOUS-PHASE REDOX FLOW BATTERIES” (KEMIWATT, priority 2022, published 2025).
Converted amounts (≈) assume the structure as drawn. Where two headings read alike, the source gives them in different places. One block for each compound: values may come before it.

Key:
[1] = conjugate acid of the base, cited from earlier work
physchem [2] = details: aqueous buffer
[3] = Solubility in water of formula (I) compounds in the presence of different bases (Example 2); details: for relative solubility, 1,1,3,3-Tetramethyl guanidine: 1.2 mol/L 1,1,3,3-Tetramethyl guanidine; for relative solubility, (NH3)aq: 1.2 mol/L (NH3)aq; for relative solubility, CsOH: 1.2 mol/L CsOH; for relative solubility, KOH: 1.2 mol/L KOH; for relative solubility, LiOH: 1.2 mol/L LiOH; for relative solubility, N-Ethyl pyrrolidine: 1.2 mol/L N-Ethyl pyrrolidine; for relative solubility, NEt3: 1.2 mol/L NEt3; for relative solubility, NMe4OH: 1.2 mol/L NMe4OH; for relative solubility, PBu4OH: 1.2 mol/L PBu4OH; for relative solubility, RbOH: 1.2 mol/L RbOH; for solubility: aqueous NaOH solution, aqueous buffer
[4] = formed cation, cited from earlier work; for Volume: derived from the literature
[5] = Chemical compatibility of bases with the posolyte: SOC of ferricyanide solution by linear voltammetry; assay type: physicochemical; details: 0.5 mol/L ferricyanide, 0.1 mol/L compound, pH about 13, 7 days in sealed flask
physchem [6] = details: aqueous buffer; remark: listed apart in the source
[7] = footnote a (Hall, J. Amer. Chem. Soc 1957)
[8] = literature (Charlot) or predicted by COSMO-RS
[9] = relative to solubility in 1 mol/L NaOH
[10] = footnote b, hexa-coordinate cation within a crystal (Shannon 1976)

Structure (SMILES): CCN(C)CC [Methyl, diethyl amine, diethylmethylamine]
pKa [1, 7]: 10.3^a

Structure (SMILES): CN1CCCC1 [N-Methyl pyrrolidine, N-methylpyrrolidine]
pKa [1, 7]: 10.5^a

Structure (SMILES): C[N+]1(C)CCCCC1.[OH-] [N,N-Dimethyl piperidinium, N,N-dimethylpiperidinium hydroxide]
pKa [1, 8]: 14

solubility (physchem [2]): 23 mM (≈ 5520 µg/mL)
Structure (SMILES): O=C1c2ccccc2C(=O)c2c1ccc(O)c2O [alizarin]

relative solubility, 1,1,3,3-Tetramethyl guanidine [3, 9]: ×4100
relative solubility, (NH3)aq [3, 9]: ×50
relative solubility, CsOH [3, 9]: ×70
relative solubility, KOH [3, 9]: ×10
relative solubility, LiOH [3, 9]: ×14
relative solubility, N-Ethyl pyrrolidine [3, 9]: ×2000
relative solubility, NEt3 [3, 9]: ×2000
relative solubility, NMe3 ([3]; 1.2 mol/L NMe3, relative to solubility in 1 mol/L NaOH): ×2000
relative solubility, NMe4OH [3, 9]: ×3700
relative solubility, PBu4OH [3, 9]: ×4100
relative solubility, RbOH [3, 9]: ×150
solubility [3]: 250 µM
Structure (SMILES): O=C(O)c1ccc2c(c1)C(=O)c1ccccc1C2=O

Structure (SMILES): [OH-].[Rb+] [Rubidium hydroxide]
Volume [4]: 14.7 Å^3
Radius [4, 10]: 1.52^b Å

Structure (SMILES): C[N+](C)(C)Cc1ccccc1.[OH-] [Tetramethyl, benzyl ammonium, trimethyl benzylammonium hydroxide]
pKa [1, 8]: 14

Structure (SMILES): CCN1CCCC1 [N-Ethyl pyrrolidine, N-ethylpyrrolidine]
pKa [1, 8]: 10.7

Structure (SMILES): C1CCC2=NCCCN2CC1 [DBU, 1,8-diazabicyclo[5.4.0]undec-7-ene]
pKa [1, 8]: 13.5

Structure (SMILES): CN(C)C(=N)N(C)C [1,1,3,3-Tetramethyl guanidine, 1,1,3,3-tetramethylguanidine]
pKa [1, 8]: 13.0

relative solubility, 1,1,3,3-Tetramethyl guanidine [3, 9]: ×82
relative solubility, (NH3)aq [3, 9]: ×3
relative solubility, CsOH [3, 9]: ×32
relative solubility, DBU ([3]; 1.2 mol/L DBU, relative to solubility in 1 mol/L NaOH): ×234
relative solubility, KOH [3, 9]: ×8
relative solubility, LiOH [3, 9]: ×0.03
relative solubility, N-Ethyl pyrrolidine [3, 9]: ×13
relative solubility, N-Methyl pyrrolidine ([3]; 1.2 mol/L N-Methyl pyrrolidine, relative to solubility in 1 mol/L NaOH): ×7
relative solubility, NEt3 [3, 9]: ×3
relative solubility, NMe4OH [3, 9]: ×213
relative solubility, PBu4OH [3, 9]: ×211
relative solubility, RbOH [3, 9]: ×16
relative solubility, Trimethyl, benzyl ammonium ([3]; 1.2 mol/L Trimethyl, benzyl ammonium, relative to solubility in 1 mol/L NaOH): ×255
solubility [3]: 3800 µM
Structure (SMILES): O=C1c2ccccc2C(=O)c2c(O)ccc(O)c21 [drawing 31, quinizarin]

Structure (SMILES): CCN(C)C [Dimethyl, ethyl amine, ethyldimethylamine]
pKa [1, 7]: 10.0^a

Structure (SMILES): C[n+]1ccccc1.[OH-] [N-Methyl pyridinium, N-methylpyridinium hydroxide]
pKa [1, 8]: 14

Structure (SMILES): [K+].[OH-] [Potassium hydroxide]
Volume [4]: 11.0 Å^3
Radius [4, 10]: 1.38^b Å

SOC after a contact time of 7 days with ferricyanide [5]: 77.7%
Structure (SMILES): O=C(O)[C@@H]1CCCN1 [proline]

Structure (SMILES): [Na+].[OH-] [Sodium hydroxide]
Volume [4]: 4.4 Å^3
Radius [4, 10]: 1.02^b Å

Structure (SMILES): CCN1CCCCC1 [N-Ethyl piperidine, N-ethylpiperidine]
pKa [1, 7]: 10.4^a

Structure (SMILES): [Li+].[OH-] [Lithium hydroxide]
Volume [4]: 1.8 Å^3
Radius [4, 10]: 0.76^b Å

Structure (SMILES): C[N+](C)(C)CCO.[OH-] [CholineOH, choline hydroxide]
SOC after a contact time of 7 days with ferricyanide [5]: 82.7%

solubility (physchem [6]): 31 mM (≈ 7450 µg/mL)
Structure (SMILES): O=C1c2ccccc2C(=O)c2c(O)ccc(O)c21 [quinizarin]

Structure (SMILES): CCCCCCCCCCCC[N+](C)(C)CCCCCCCCCCCC [Didodecyl, dimethyl ammonium, didodecyldimethylammonium hydroxide]
pKa [1, 8]: 14

Structure (SMILES): C[N+](C)(C)C [Tetramethyl ammonium, tetramethylammonium hydroxide]
pKa [1, 8]: 14

Structure (SMILES): C[N+]1(C)CCCC1.[OH-] [N,N-Dimethyl pyrrolidinium, N,N-dimethylpyrrolidinium hydroxide]
pKa [1, 8]: 14

Structure (SMILES): CCCCCCCCCCCCCCCC[N+](C)(C)C [Trimethyl, cetyl ammonium, trimethyl cetylammonium hydroxide]
pKa [1, 8]: 14

Structure (SMILES): [Cs+].[OH-] [Caesium hydroxide]
Volume [4]: 19.5 Å^3
Radius [4, 10]: 1.67^b Å

Structure (SMILES): N [Ammonia]
Volume [4]: 13.6 Å^3
Radius ([4]; footnote c (Sidey 2016)): 1.48^c Å
